Test results from patent US20220363665A1, “QUINOLINE COMPOUNDS FOR THE TREATMENT OF AUTOIMMUNE DISEASE” (Hoffmann-La Roche Inc., priority 2019, published 2022).
pIC50: −log10 of the molar value.

Legend:
human TLR9 = biological target: T1, human TLR9 (Homo sapiens, UniProt Q9NR96); assay: HEK293-Blue-hTLR-9 cells assay (SEAP reporter, ODN2006 stimulation); format: cell-based; conditions: HEK293-Blue-hTLR9 cells, ODN2006, 20 hrs
T1 construct: host or cells: HEK293 (HEK-Blue hTLR9)
T1 sequence (Q9NR96 26-1032): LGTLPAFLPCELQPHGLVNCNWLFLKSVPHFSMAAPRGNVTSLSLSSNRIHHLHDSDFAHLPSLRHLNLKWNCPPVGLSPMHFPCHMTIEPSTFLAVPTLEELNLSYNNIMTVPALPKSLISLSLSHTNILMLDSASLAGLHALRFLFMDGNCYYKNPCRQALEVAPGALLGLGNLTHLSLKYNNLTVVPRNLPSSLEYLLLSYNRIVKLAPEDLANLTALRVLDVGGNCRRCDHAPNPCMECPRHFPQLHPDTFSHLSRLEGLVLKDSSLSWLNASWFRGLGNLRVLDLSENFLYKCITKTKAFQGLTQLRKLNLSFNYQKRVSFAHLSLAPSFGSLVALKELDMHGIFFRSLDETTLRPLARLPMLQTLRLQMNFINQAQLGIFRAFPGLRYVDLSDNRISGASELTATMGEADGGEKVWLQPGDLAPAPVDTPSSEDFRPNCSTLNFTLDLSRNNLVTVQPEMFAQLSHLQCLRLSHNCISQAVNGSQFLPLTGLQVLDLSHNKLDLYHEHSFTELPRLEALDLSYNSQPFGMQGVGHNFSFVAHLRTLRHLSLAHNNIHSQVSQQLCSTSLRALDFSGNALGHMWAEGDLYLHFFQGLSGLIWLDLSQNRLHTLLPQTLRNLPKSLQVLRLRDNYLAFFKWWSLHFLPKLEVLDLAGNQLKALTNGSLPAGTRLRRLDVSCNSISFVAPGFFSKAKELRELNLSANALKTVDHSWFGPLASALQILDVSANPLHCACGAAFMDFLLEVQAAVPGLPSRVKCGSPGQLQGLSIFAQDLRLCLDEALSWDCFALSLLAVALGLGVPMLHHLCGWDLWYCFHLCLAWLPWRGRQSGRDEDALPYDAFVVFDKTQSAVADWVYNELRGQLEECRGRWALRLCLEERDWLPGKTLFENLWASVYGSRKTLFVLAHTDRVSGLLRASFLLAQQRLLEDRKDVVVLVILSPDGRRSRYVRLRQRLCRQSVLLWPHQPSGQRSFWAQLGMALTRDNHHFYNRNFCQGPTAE
How it was run: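 Stable HEK293-Blue-hTLR9 line with NF-κB/AP-1-driven SEAP reporter; cells in DMEM/10% heat-inactivated FBS given serially diluted compound (final DMSO 1%) plus ODN2006 ligand, 20 hrs at 37 °C. Supernatant SEAP measured with QUANTI-Blue substrate, 2 hrs at 37 °C, absorbance 620–655 nm; antagonism seen as reduced reporter signal.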

[1] = Human microsome stability assay; format: in vitro ADME; conditions: 1 μM test compound, 0.5 mg/mL protein
Experimental: The human microsomal stability assay is used for early assessment of metabolic stability of a test compound in human liver microsomes.
Human liver microsomes (Cat. NO.: 452117, Corning, USA; Cat. NO.: H2610, Xenotech, USA) were preincubated with test compound for 10 minutes at 37° C. in 100 mM potassium phosphate buffer, pH 7.4. The reactions were initiated by adding NADPH regenerating system. The final incubation mixtures contained 1 μM test compound, 0.5 mg/mL liver microsomal protein, 1 mM MgCl2, 1 mM NADP, 1 unit/mL isocitric dehydrogenase and 6 mM isocitric acid in 100 mM potassium phosphate buffer, pH 7.4. After incubation times of 0, 3, 6, 9, 15 and 30 minutes at 37° C., 300 μL of cold ACN (including internal standard) was added to 100 μL incubation mixture to terminate the reaction. Following precipitation and centrifugation, the amount of compound remaining in the samples were determined by LC-MS/MS. Controls of no NADPH regenerating system at zero and 30 minutes were also prepared and analyzed. The results were categorized as: low (<7.0 mL/min/kg), medium (7.0˜16.2 mL/min/kg) and high (16.2-23.2 mL/min/kg).

LYSA solubility assay = format: physicochemical; conditions: 0.05 M phosphate buffer, pH 6.5, aqueous buffer, thermodynamic from solid
How it was run: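 Duplicate samples from 10 mM DMSO stock, DMSO evaporated, residue taken up in 0.05 M phosphate buffer pH 6.5, stirred 1 h, shaken 2 h, left overnight, filtered. Filtrate quantified by HPLC-UV against four-point calibration; solubility in μg/mL, reported as greater-than when >80% of maximum dissolved.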

SMILES: C[C@@H]1CN(c2ccc(C(F)(F)F)c3ncccc23)C[C@H](C(=O)NC[C@@H]2C[C@@H](F)CN2)O1 [Example 27, (2R,6R)-N-[[(2S,4R)-4-fluoropyrrolidin-2-yl]methyl]-6-methyl-4-[8-(trifluoromethyl)-5-quinolyl]morpholine-2-carboxamide]
- pIC50 (human TLR9): 4.55
- clearance in human liver microsomes [1]: 0.369 L/h/kg
- solubility thermodynamic (LYSA solubility assay): > 0.585 mg/mL
